Measured values as given in patent US5556777A, “Immunosuppressive pharmaceutical compositions new biological activity from a marine agrobacterium sp” (PharmaMar, s.a., priority 1993, dated 1996).
≈ marks a conversion by molar mass, not a printed value.

Tests used:
[1] = system: murine lymphocytes (Balb/c and C57BI/6, cocultured); experiment: In vitro murine mixed lymphocyte reaction (MLR); format: cell-based; settings: for MLR IC50: murine MLR, 96 h incubation, 15 h 3H-Thy pulse; for Index Cytotox./Activity: ratio LcV IC50 / MLR IC50
Method: The MLR is an in vitro test of cellular immunity in which murine lymphocytes from genetically dissimilar animals are cocultured to mutually induce cell proliferation (i.e., two-way MLR method). Mixed cell suspensions, together with the test compound, are incubated for 96 hours and subsequently pulsed for 15 hours with tritiated-thymidine (3H-Thy), a radioisotopically labelled nucleic acid. Tritiated-thymidine is incorporated into the DNA of proliferating cells. Data from the MLR is generated as dpm of radioactivity which is then expressed as a percentage of cellular activity, relative to control, using the following reduced formula: [formula]
A 50% inhibitory concentration (IC50) value was interpolated for sesbanimide containing fractions tested. A ratio between cytotoxicity, as determined from the LcV described below, and activity in the MLR is also presented. A high ratio distinguishes noncytotoxic immunosuppression from general cytotoxicity.
Reconstituted extract (10 μl) is added in two sets of duplicates into wells of a 96-well microtiter plate and evaporated to dryness at room temperature. […] To the other set of sample duplicates is added complete media without cells so as to provide for background color control data. All plated are incubated in a 5% CO2 incubator for 96 hours and pulsed for 15 hours with 100 μl containing 1 μCi/well tritiated-thymidine (^3 H-Thy). The plates are harvested onto glass fiber filter discs using an INOTECH harvester. The filter discs are counted directly using an INOTECH dry scintillation counter. The activity of the discs are calculated as a relative proliferative percent of a mean control value as described above.

[2] = Lymphocyte viability / cytotoxicity assay (LcV), MTT; format: cell-based, murine; settings: mouse, lymphocytes; LcV; read-out: cytotoxicity IC50
Method: (§1) The LCV is a in vitro cytotoxicity assay for murine lymphocytes designed by the investigator. The LCV is similar to the MLR with the exception that only one cell population (Balb/c) is incubated with the test compound to assess cytotoxicity as distinct from the antiproliferative effects of a test compound. That is, unlike the unambiguous determination of immunostimulation from MLR data, a judgement of immunosuppression can not be immediately interpreted. Cytotoxicity (e.g., due to direct cell lysis) from a compound can occur which would alter viability determinations inherent in the generation of MLR data. […] The percent viable cells is determined by the MTT-thiazolyl blue method after a similar incubation to the MLR of lymphocytes with the test sample. MTT is a substrate converted by mitochondrial enzymes in living cells to a purple, water-insoluble, formazan crystal. If there is no significant reduction in cell viability, as determined by this detection method, then damaged cells are probably not present for low data values generated in the MLR. Colorimetric data from the LCV is calculated as a percentage of viability, relative to control, using the following formula: [formula]
(§2) A 50% viability, or 50% cytotoxicity, (IC50) value was interpolated for sesbanimide containing fractions tested.
(§3) Lymphocytes are prepared as described above for the MLR with the exception that cells from only one murine strain are prepared (BLAB/c). Reconstituted extract (10 μl) is added in two sets of duplicates into wells of a 96-well microtiter plate and evaporated to dryness at room temperature. Lymphocytes (2.5×10^6 cells/ml) are added to one set of duplicates and to wells containing no sample. Media containing no cells are added to the other set of duplicates to provide background color control data. Plated are incubated in a 5% CO2 incubator for 4 hours and pulsed with MTT-thiazolyl blue for 6-8 hours.

[3] = system: murine lymphocytes (Balb/c); experiment: as above; format: cell-based; settings: murine lymphocytes, MTT viability (50% cytotoxicity)
Method: as §1, §2, §3

[4] = Toxicology (MTD, LD50) in CD-1 or CB6F1 mice; format: in vivo, mouse; settings: mouse, in vivo, CD-1 or CB6F1 mice
Method: (§4) The MTD establishes the parameters to establish in vivo dosages initiated for studying the Graft-v-Host reaction and skin grafting. The Swiss conventional mouse (Charles River CD-1) is used in a weight range from 18-30 g.
(§5) Animals are injected with a single dose at four dose levels: e.g., 400 mg/kg, 100 mg/kg, 40 mg/kg, and 10 mg/kg in 0.5 ml of sterile vehicle (2 animals per dose, MTD). A saline solution containing 5% non-denatured EtOH and a drop of Tween-80 detergent is used a vehicle for dilution. Stirring and sonication are utilized to effect solution or suspension of the composition. The composition is injected within one hour of preparation. Animals are observed for five days (MTD) after injection for toxic symptoms and/or death. Group weights are taken D0 and D5. Surviving animals are sacrificed on D5 (MTD). A `Daily Logsheet` used in the toxicity studies is appended.

[5] = system: CD-1 or CB6F1 mice; experiment: Toxicology (MTD, LD50) in CD-1 or CB6F1 mice; format: in vivo, mouse
Method: as §4, §5

[6] = system: Graft-v-Host Reaction; experiment: In vivo Graft-v-Host reaction (GVHR), spleen index; design: species or system mouse
Method: Any sample that prevents splenomegaly (<graft index) is considered as an immunosuppressive active.
A standard of cyclophosphamide (200 mg/kg) is used. Experimental animals are sacrificed on D8 and spleens removed. […] Moribund animals are sacrificed immediately.

[7] = system: leukemia; settings: isolated from Sesbania drummondi; cited from earlier work
[8] = system: primary mixed lymphocyte cultures (MLRs) and alloreactive T cells; settings: compared with cyclosporin A; cited from earlier work
[9] = system: Agrobacterium sp. strain PH-103; experiment: Antibiotic sensitivity of strain PH-103 (sensitivity discs); format: cell-based; settings: 27° C.
Method: 18. Antibiotic sensitivity--ATCC number 231 basal medium. Difco sensitivity discs
The culture was incubated at 27° C. and records of the results were made after suitable incubation times. All media were prepared with 2.7% Instant Ocean Salts and pH was approximately neutral (7-7.4). The description of the culture and test results are as follows: […]

C=C1COC(O)(C2OCOC(C3CC(=O)NC(=O)C3)C2O)C1C (single isomer, unassigned) [Sesbanimide]
immunosuppressive activity (in words) ([1]; Table 4 data: trace amounts of an extract, major constituent, or pure compound): potent immunosuppressive activity
MLR IC50 ([1]; listed as ET 103/64-6:8): < 0.0075 µg/mL
MLR IC50 ([1]; listed as ET 103/89-4): 0.00015 µg/mL
Index Cytotox./Activity ([1]; listed as ET 103/64-6:8): > 1,746
Index Cytotox./Activity ([1]; listed as ET 103/89-4): 2,777
CC50 at 4 h [2]: 0.417 to 3.6 µg/mL (≈ 1.27 to 11 µM)
LcV IC50 ([3]; listed as ET 103/64-6:8): 13.100 µg/mL
LcV IC50 ([3]; listed as ET 103/89-4): 0.417 µg/mL
survival at 120 h ([4]; at maximum tolerated dose, read-out: Alive Day 5): 100%
MTD at 120 h ([4]; read-out: Maximum Tolerated): 0.56 mg/kg
LD50 ([5]; CD-1 or CB6F1 mice): 0.805 mg/kg
toxicity at 56, 10.5 and 5.6 mg/kg ([5]; pure compound, in vivo, 56, 10.5 and 5.6 mg/kg): toxic
toxicity at total doses equal to or lower than 0.56 mg/kg ([5]; pure compound, in vivo, total dose ≤0.56 mg/kg): no toxicity
immunosuppressive activity in GVHR (in words) ([6]; Table 6 data): potent immunosuppressive activity
Alive Day 8 ([6]; optimal dose 0.2 mg/kg, i.p. per diem 7 days): 40%
GVHR Index ([6]; optimal dose 0.2 mg/kg, i.p. per diem 7 days, positive 1.34): 0.92
antineoplastic activity (in words) [7]: antineoplastic activity, particularly against leukemia

O=P1(N(CCCl)CCCl)NCCCO1 (stereo not shown) [Cyclophosphamide, cyclophosphamide]
Alive Day 8 ([6]; 200.0 mg/kg, test 124-93): 100%
GVHR Index ([6]; 200.0 mg/kg, test 124-93, positive 1.32): 0.23
Alive Day 8 ([6]; 200.0 mg/kg, test 811-93): 60%
GVHR Index ([6]; 200.0 mg/kg, test 811-93, positive 1.34): 0.28

C=CC[C@@H]1/C=C(\C)C[C@H](C)C[C@H](OC)[C@H]2O[C@@](O)(C(=O)C(=O)N3CCCC[C@H]3C(=O)O[C@H](/C(C)=C/[C@@H]3CC[C@@H](O)[C@H](OC)C3)[C@H](C)[C@@H](O)CC1=O)[C@H](C)C[C@@H]2OC [FK 506]
potency relative to cyclosporin A (in words) [8]: more potent than cyclosporin A

CCn1cc(C(=O)O)c(=O)c2ccc(C)nc21 [nalidixic acid]
Antibiotic sensitivity of strain PH-103 [9]: Sensitive

CN[C@H](CC(C)C)C(=O)N[C@H]1C(=O)N[C@@H](CC(N)=O)C(=O)N[C@H]2C(=O)N[C@H]3C(=O)N[C@H](C(=O)N[C@H](C(=O)O)c4cc(O)cc(O)c4-c4cc3ccc4O)[C@H](O)c3ccc(c(Cl)c3)Oc3cc2cc(c3O[C@@H]2O[C@H](CO)[C@@H](O)[C@H](O)[C@H]2O[C@H]2C[C@](C)(N)[C@H](O)[C@H](C)O2)Oc2ccc(cc2Cl)[C@H]1O [vancomycin]
Antibiotic sensitivity of strain PH-103 [9]: resistant

polymyxin
Antibiotic sensitivity of strain PH-103 [9]: resistant
